Key:
hEAG2 = molecular target: T1, hEAG2 (Homo sapiens, UniProt Q8NCM2); test: Whole cell electrophysiology of hEAG2 and GFP cotransfected CHO cells; format: cell-based
T1 construct: The complete open reading frame of HEAG2 cDNA was cloned into an Invitrogen native expression Gateway entry vector; expressed in transfected cells; host or cells: CHO cells, transient co-transfection with GFP DNA (Lipofectamine Plus)
T1 sequence (Q8NCM2 1-988): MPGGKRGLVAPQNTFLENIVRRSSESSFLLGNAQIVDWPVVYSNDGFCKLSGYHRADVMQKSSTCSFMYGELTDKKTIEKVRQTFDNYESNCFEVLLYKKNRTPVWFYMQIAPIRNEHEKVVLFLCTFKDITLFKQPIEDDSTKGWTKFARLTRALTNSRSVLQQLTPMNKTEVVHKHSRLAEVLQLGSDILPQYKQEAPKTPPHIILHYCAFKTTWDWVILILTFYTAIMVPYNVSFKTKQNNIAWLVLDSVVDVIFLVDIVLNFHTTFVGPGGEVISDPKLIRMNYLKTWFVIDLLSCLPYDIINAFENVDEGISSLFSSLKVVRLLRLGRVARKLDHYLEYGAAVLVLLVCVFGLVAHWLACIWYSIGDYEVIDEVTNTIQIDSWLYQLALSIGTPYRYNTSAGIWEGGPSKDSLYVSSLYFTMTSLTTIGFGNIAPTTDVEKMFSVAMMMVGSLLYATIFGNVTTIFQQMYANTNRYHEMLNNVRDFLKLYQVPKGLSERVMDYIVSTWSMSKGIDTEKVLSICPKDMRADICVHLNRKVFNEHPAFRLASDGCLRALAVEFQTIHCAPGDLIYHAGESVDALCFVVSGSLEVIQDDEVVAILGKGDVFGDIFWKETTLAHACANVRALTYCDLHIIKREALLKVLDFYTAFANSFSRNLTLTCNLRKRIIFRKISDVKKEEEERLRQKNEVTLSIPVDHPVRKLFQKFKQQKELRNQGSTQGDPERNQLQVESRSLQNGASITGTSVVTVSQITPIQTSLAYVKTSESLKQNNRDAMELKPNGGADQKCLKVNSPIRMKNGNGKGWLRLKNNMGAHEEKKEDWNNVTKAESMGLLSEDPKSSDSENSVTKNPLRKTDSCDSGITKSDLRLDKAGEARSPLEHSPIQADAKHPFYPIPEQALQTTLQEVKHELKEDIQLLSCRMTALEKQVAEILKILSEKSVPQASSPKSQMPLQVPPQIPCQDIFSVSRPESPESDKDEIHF
Procedure: CHO cells were plated in growth medium at 10% (1.2×10^5 cells/dish) and 20% (2.4×10^5 cells/dish) confluence in poly-lysine coated 35 mm dishes. After 24 hours, the growth medium was removed, and cells were rinsed with Optimem (Invitrogen # 31985-070), then refed 0.8 ml Optimem. Cells were transiently co-transfected with 0.5 ug hEAG2 DNA in the pDEST vector, and 0.5 ug of GFP DNA using Lipofectamine Plus (Invitrogen # 10964-013). Three hours post transfection, the transfection mix was removed, and cells were refed with 2 ml growth medium. Twenty four hours post transfection, cells were again refed 2 ml fresh growth medium. Cells were used in experiments 24-72 hrs post transfection. Control experiments were performed in CHO cells transiently transfected with 1 μg of GFP DNA. CHO growth medium is Iscove's medium (Invitrogen #12440)+10% FBS, 1× non-essential amino acids(Invitrogen #12383-014) and 1× HT Supplement (Invitrogen #11067-030). All chemicals were purchased from Sigma Chemicals, St. Louis Mo. The internal solution contained (in mM): KCl 130, MgCl2 1, CaCl2 1, HEPES 10, EGTA 10, and was titrated to a pH of 7.2. […] The bath solution contained (in mM) NaCl 140, KCl 4, MgCl2 1, CaCl2 1.8, HEPES 10, Glucose 10, and was titrated to a pH of 7.4. For some experiments the bath solution was modified by the addition of 1 or 5 mM BaCl2, by changing the concentration of MgCl2 to 0 or 10 mM or by reducing NaCl to 104 mM and increasing KCl to 40 mM. During data recording, cells were constantly superfused with bath solution delivered through a fused silica perfusion tip, internal diameter […]. Solution changes were accomplished through the use of a […]16 multichannel perfusion system from AutoMate Scientific, San Francisco Calif. Currents were recorded on an EPC-9 amplifier (HEKA Electronik, Lambrecht/Pfalz, Germany), controlled through the Pulse software package. Currents were sampled at 10 kHz and filtered at 3.3 kHz. Pipettes were constructed from thin walled borosilicate capillary tubing (Warner Instruments Corp., Hamden Conn.), and pulled to a resistance of 1.5-3 MΩ on a P-97 micropipette puller (Sutter Instrument Co., Novato Calif.). All experiments were conducted at 20° C. Following the establishment of a Gigaohm seal and whole cell access, cells were held at -80 mV. […] All stimulation protocols were applied at 0.1 Hz.

Eag proteins = conditions: intracellular Ca++; read-out: half-maximal inhibition concentration; cited from earlier work
[1] = picogram quantities, female recipients; cited from earlier work
Human lung fibroblasts = test: Human lung fibroblast proliferation assay (Alamar Blue); format: cell-based; conditions: 3 days in basal medium
Procedure: Human lung fibroblasts are obtained from Clonetics (San Diego, Calif.) and maintained in growth media from Clonetics. Dermal microvascular endothelial cells are obtained from Cell Applications (San Diego, Calif.). For proliferation assays, the human lung fibroblasts and dermal microvascular endothelial cells can be cultured at 5,000 cells/well in a 96-well plate for one day in growth medium. The cells are then incubated for one day in 0.1% BSA basal medium. After replacing the medium with fresh 0.1% BSA medium, the cells are incubated with the test proteins for 3 days. Alamar Blue (Alamar Biosciences, Sacramento, Calif.) is added to each well to a final concentration of 10%. The cells are incubated for 4 hr. Cell viability is measured by reading in a CytoFluor fluorescence reader. For the PGE2 assays, the human lung fibroblasts are cultured at 5,000 cells/well in a 96-well plate for one day. […]

[2] = system: nigral dopaminergic neurons; conditions: gel foam implants in the striatum; cited from earlier work

With `[Ba+2].[Cl-].[Cl-]` [Ba^++, BaCl2] the steady state current (hEAG2; addition of Ba^++ to the extracellular solution (bath + 1 or 5 mM BaCl2), depolarization to +40 mV for 1 sec, 20° C) was “apparent reduction”.
For `[Ca+2]` [Ca++], the IC50 (Eag proteins) is listed as roughly 100 nM.
For `[K+]` [K^+, KCl], the tail reversal potential (hEAG2; increased extracellular K^+ (KCl 40 mM, NaCl 104 mM)) was “approximately −40 mV”.
For `[Mg+2]` [Mg^++, MgCl2], the “activation rate of the current” value (hEAG2; Mg^++ free bath (MgCl2 0 mM)) was “much faster” and the “activation rate of the current” value (hEAG2; increased bath Mg^++ (MgCl2 10 mM)) was “dramatically slowed”.
For `C[C@@]12C=CC[C@H]1[C@@H]1CCC3=CC(=O)CC[C@]3(C)[C@H]1CC2` [androstadienone], the “nervousness, tension and other negative feelings” value [1] is given as “significant reduction”.
In the case of “FGF-2: Fibroblast growth factor 2 (basic FGF), comparator protein for the polypeptides of the invention”, the “stimulation of growth of human lung fibroblasts, concentration showing stimulation” value (Human lung fibroblasts) is given as 10 to 2500 ng/mL and the “protection of nigral dopaminergic neurons from toxicity associated with MPTP exposure” value [2] is given as “near complete protection”.
